Laboratory results: PubChem BioAssay (NCI)
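Where inhibition never reached the appropriate level, the endpoint shown equals the highest concentration tested. Otherwise, values were interpolated linearly from a five-concentration, 48-hour dose response in 96-well plates. The concentration for full growth arrest is given as TGI.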

Legend:
Test in all cases: NCI-60 cell line screen, 48 h
[1] = tested on: OVCAR-4 ovarian
[2] = tested on: MDA-N
[3] = tested on: UACC-257 melanoma
[4] = tested on: LOX IMVI melanoma
[5] = tested on: HT29 colon
[6] = tested on: NCI-H226 lung
[7] = tested on: MOLT-4 leukemia
[8] = tested on: SK-OV-3 ovarian
[9] = tested on: OVCAR-8 ovarian
[10] = tested on: NCI-H23 lung
[11] = tested on: TK-10 renal
[12] = tested on: SF-295 CNS
[13] = tested on: CAKI-1 renal
[14] = tested on: KM12 colon
[15] = tested on: OVCAR-5 ovarian
[16] = tested on: HCC-2998 colon
[17] = tested on: UACC-62 melanoma
[18] = tested on: DU-145 prostate
[19] = tested on: ACHN renal
[20] = tested on: M14 melanoma
[21] = tested on: A549 NSCLC
[22] = tested on: COLO 205 colon
[23] = tested on: SK-MEL-5 melanoma
[24] = tested on: SN12C renal
[25] = tested on: HOP-92 NSCLC
[26] = tested on: EKVX NSCLC
[27] = tested on: NCI/ADR-RES ovarian
[28] = tested on: HS 578T breast
[29] = tested on: CCRF-CEM leukemia
[30] = tested on: SF-268 CNS
[31] = tested on: HCT-116 colon
[32] = tested on: SNB-19 CNS
[33] = tested on: SK-MEL-28 melanoma
[34] = tested on: A498 renal
[35] = tested on: IGROV1 ovarian
[36] = tested on: U251 CNS
[37] = tested on: 786-0 renal
[38] = tested on: HCT-15 colon
[39] = tested on: SNB-75 CNS
[40] = tested on: MDA-MB-435
[41] = tested on: NCI-H460 lung
[42] = tested on: RXF 393 renal
[43] = tested on: MALME-3M melanoma
[44] = tested on: HOP-62 NSCLC
[45] = tested on: PC-3 prostate
[46] = tested on: OVCAR-3 ovarian
[47] = tested on: RPMI-8226 leukemia
[48] = tested on: T-47D breast
[49] = tested on: MDA-MB-231 breast
[50] = tested on: K-562 leukemia
[51] = tested on: HL-60(TB) leukemia
[52] = tested on: MCF7 breast
[53] = tested on: SF-539 CNS
[54] = tested on: SW-620 colon
[55] = tested on: NCI-H522 lung
[56] = tested on: SR leukemia
[57] = tested on: UO-31 renal
[58] = tested on: SK-MEL-2 melanoma
[59] = tested on: BT-549 breast

`COc1cc(C2c3cc4c(cc3OC(NNS(=O)(=O)c3ccc(C)cc3)C2C)OCO4)cc(OC)c1O` (stereo unspecified) showed a TGI [1] of 40.1 µM, a TGI [2] of 51.4 µM and a TGI [3] of 38.4 µM. The TGI [4] was 52.3 µM, the TGI [5] was 49.6 µM and the TGI [6] was 60.2 µM. The TGI [7] was 49.5 µM, the TGI [8] was 79.2 µM and the TGI [9] was greater than 100 µM. The TGI [10] was 76.4 µM, the TGI [11] was 39.9 µM and the TGI [12] was 17.7 µM. It also gave a TGI [13] of 32.8 µM, a TGI [14] of 36.5 µM and a TGI [15] greater than 100 µM. It also gave a TGI [16] greater than 100 µM, a TGI [17] of 40.9 µM and a TGI [18] greater than 100 µM. It also gave a TGI [19] of 33.6 µM, a TGI [20] of 58.2 µM and a TGI [21] greater than 100 µM. For the same compound, the TGI [22] was 43.5 µM, the TGI [23] was 25 µM and the TGI [24] was greater than 100 µM. The TGI [25] was 54.8 µM, the TGI [26] was 49.8 µM and the TGI [27] was 45.1 µM. For the same compound, the TGI [28] was 55.3 µM, the TGI [29] was greater than 100 µM and the TGI [30] was greater than 100 µM. The TGI [31] was greater than 100 µM, the TGI [32] was 56.4 µM and the TGI [33] was greater than 100 µM. For the same compound, the TGI [34] was 25.2 µM, the TGI [35] was 30.8 µM and the TGI [36] was 27.8 µM. For the same compound, the TGI [37] was 42.9 µM, the TGI [38] was 22.6 µM and the TGI [39] was 22.7 µM. It also gave a TGI [40] of 12.4 µM, a TGI [41] of 17.5 µM and a TGI [42] of 54 µM. It also gave a TGI [43] of 25 µM, a TGI [44] of 39.4 µM and a TGI [45] of 14 µM. For the same compound, the TGI [46] was 50 µM, the TGI [47] was 41.9 µM and the TGI [48] was greater than 100 µM. For the same compound, the TGI [49] was 57.5 µM, the TGI [50] was 45.7 µM and the TGI [51] was 35.4 µM. For the same compound, the TGI [52] was 36.1 µM, the TGI [53] was 31.4 µM and the TGI [54] was greater than 100 µM. The TGI [55] was 69.1 µM.

Work on `CC(=O)NC1(c2cc3ccccc3s2)CCCCCC1` yielded a TGI [1] greater than 100 µM, a TGI [2] greater than 100 µM and a TGI [3] greater than 100 µM. For the same compound, the TGI [4] was greater than 100 µM, the TGI [5] was greater than 100 µM and the TGI [6] was greater than 100 µM. For the same compound, the TGI [7] was 44.4 µM, the TGI [8] was greater than 100 µM and the TGI [9] was greater than 100 µM. It also gave a TGI [10] greater than 100 µM, a TGI [11] greater than 100 µM and a TGI [12] greater than 100 µM. For the same compound, the TGI [13] was greater than 100 µM, the TGI [14] was greater than 100 µM and the TGI [15] was greater than 100 µM. For the same compound, the TGI [16] was greater than 100 µM, the TGI [17] was greater than 100 µM and the TGI [18] was greater than 100 µM. For the same compound, the TGI [19] was greater than 100 µM, the TGI [20] was greater than 100 µM and the TGI [21] was greater than 100 µM. For the same compound, the TGI [56] was 93.1 µM, the TGI [22] was 50 µM and the TGI [23] was 66.7 µM. For the same compound, the TGI [24] was greater than 100 µM, the TGI [25] was greater than 100 µM and the TGI [57] was greater than 100 µM. It also gave a TGI [26] of 57.3 µM, a TGI [27] greater than 100 µM and a TGI [29] of 52.6 µM. It also gave a TGI [30] of 40.9 µM, a TGI [31] greater than 100 µM and a TGI [32] greater than 100 µM. It also gave a TGI [33] greater than 100 µM, a TGI [34] greater than 100 µM and a TGI [35] greater than 100 µM. For the same compound, the TGI [36] was greater than 100 µM, the TGI [37] was greater than 100 µM and the TGI [38] was greater than 100 µM. For the same compound, the TGI [39] was 92.2 µM, the TGI [40] was greater than 100 µM and the TGI [41] was greater than 100 µM. For the same compound, the TGI [42] was 80.6 µM, the TGI [44] was greater than 100 µM and the TGI [45] was 60.8 µM. It also gave a TGI [46] of 62.8 µM, a TGI [49] greater than 100 µM and a TGI [50] of 97.3 µM. The TGI [58] was 53.2 µM, the TGI [51] was 55.4 µM and the TGI [52] was greater than 100 µM. For the same compound, the TGI [53] was greater than 100 µM, the TGI [54] was greater than 100 µM and the TGI [59] was greater than 100 µM. For the same compound, the TGI [55] was 39.1 µM.

With `C/C1=C/C(=O)O[C@@H]2C[C@@H](CC[C@H](C)/C=C\C=C\CC1)O[C@@](O)([C@@H]1CSC(=O)N1)C2` the TGI [1] was greater than 10 µM, the TGI [2] was greater than 10 µM and the TGI [3] was greater than 10 µM. It also gave a TGI [4] greater than 3.88 µM, a TGI [5] greater than 10 µM and a TGI [6] greater than 2.9 µM. The TGI [7] was greater than 10 µM, the TGI [8] was greater than 9.4 µM and the TGI [9] was greater than 10 µM. It also gave a TGI [10] greater than 10 µM, a TGI [11] of 1.01 µM and a TGI [12] greater than 8.93 µM. For the same compound, the TGI [13] was 0.619 µM, the TGI [14] was greater than 10 µM and the TGI [15] was greater than 10 µM. For the same compound, the TGI [16] was greater than 10 µM, the TGI [17] was greater than 10 µM and the TGI [18] was greater than 10 µM. For the same compound, the TGI [19] was greater than 10 µM, the TGI [20] was 3.75 µM and the TGI [21] was greater than 10 µM. It also gave a TGI [56] greater than 10 µM, a TGI [22] of 0.36 µM and a TGI [23] greater than 2.76 µM. It also gave a TGI [24] greater than 10 µM, a TGI [25] of 0.356 µM and a TGI [57] of 1.25 µM. It also gave a TGI [26] greater than 5.52 µM, a TGI [27] greater than 10 µM and a TGI [28] of 0.512 µM. The TGI [29] was greater than 10 µM, the TGI [30] was 1.38 µM and the TGI [31] was greater than 10 µM. The TGI [32] was greater than 7.89 µM, the TGI [33] was 5.41 µM and the TGI [34] was 0.358 µM. The TGI [35] was 0.547 µM, the TGI [36] was greater than 10 µM and the TGI [37] was greater than 10 µM. For the same compound, the TGI [38] was greater than 10 µM, the TGI [39] was 0.332 µM and the TGI [40] was greater than 2.24 µM. It also gave a TGI [41] greater than 10 µM, a TGI [42] of 0.752 µM and a TGI [43] greater than 10 µM. It also gave a TGI [44] of 0.724 µM, a TGI [45] greater than 10 µM and a TGI [46] of 4.25 µM. For the same compound, the TGI [47] was greater than 10 µM, the TGI [49] was greater than 2.65 µM and the TGI [50] was greater than 10 µM. It also gave a TGI [58] greater than 10 µM, a TGI [51] greater than 10 µM and a TGI [52] greater than 10 µM. The TGI [53] was 0.991 µM and the TGI [59] was greater than 2.59 µM.
